No end group written: not given here.
B1: … (SEQ ID NO:3) (peptide)
peptide: DCAFHLGELVWCT
B2: … (SEQ ID NO:14) (peptide)
peptide: APPCARHLGELVWCT
modifications: not fully specified; cysteine pairing not given here
B3: … (SEQ ID NO:13) (peptide)
peptide: APPCAWHLGELVWCT
modifications: not fully specified; cysteine pairing not given here
B4: … (SEQ ID NO:15) (peptide)
peptide: APPCAFHLGELVWCT
modifications: not fully specified; cysteine pairing not given here
B5: … (SEQ ID NO:16) (peptide)
peptide: APPDCAWHLGELVWCT

Experiments:
human C1q = test: Reverse ELISA: inhibition of PAP immune complex binding to C1q coated plates; conditions: for OD 405 nm: PAP pre-incubated 1 h with peptide or C1q, 30 min on C1q coated plates, lower OD = more inhibition, positive control 2.355; for inhibition of C1q binding, ranking in words: among the peptides of Table 1
Text: (§1) For this reason, a “reverse ELISA” technique was used to assess binding of the Fc region to ligands that bind to immune complexed IgG Fc. In a reverse ELISA, the enzyme (e.g., HRP) is not covalently conjugated to the Fc portion of the secondary antibody. Rather, a preformed immune complex of peroxidase-rabbit (or mouse) anti-peroxidase IgG (“PAP” complex) is used. […] In these experiments, an Fc CH2-CH3 cleft binding ligand (e.g., purified human C1q) was bound to microwell plates. In the absence of competitor, PAP complexes bound to the immobilized ligand and the reaction between HRP and its substrate produced a signal. This signal was reduced by polypeptides and compounds provided herein that inhibited PAP binding to the immobilized ligand.
PAP complexes were formed mixing 2 μl of rabbit anti-peroxidase (Sigma Chemicals, St. Louis, Mo.) with 50 μl of peroxidase (Sigma-Aldrich, St. Louis, Mo.) in 1 ml distilled water. PAP (100 μl) were pre-incubated with 100 μl of peptide for one hour, 100 μl were pre-incubated with 100 μl of peptide or human C1q (Quidel Corp., San Diego, Calif.) for one hour. The C1q/PAP and peptide/PAP mixtures (100 μl) were incubated with C1q coated plates for 30 minutes. After washing, plates were incubated with ATBS (Quidel Corp.) for 15 minutes and read at 405 nm.

FcγIIb = test: Reverse ELISA: inhibition of PAP immune complex binding to FcγIIb coated plates; conditions: PAP pre-incubated 1 h with peptide, 1 h on FcγIIb coated plates; lower = more inhibition; positive control 1.394
Text: as §1
(§2) Once the reverse ELISA protocol was established using the C1q assay, the assay was redesigned using FcγIIa, FcγIIb, and FcγIII in place of C1q. Highly purified FcγIIa, FcγIIb and FcγIII were immunoabsorbed onto plastic microwells. After optimizing the FcγR reverse ELISA system, simple competitive inhibition experiments using polypeptides provided herein were conducted to investigate their ability to inhibit binding of immune complexes to purified FcγR.
(§3) Falcon microtiter plates were coated with 1:10 dilutions of highly purified FcγIIa, FcγIIb and FcγIII and incubated for 24 hours. The plates were washed and then blocked with 5×BSA blocking solution (Alpha Diagnostic International, San Antonio, Tex.) for 24 hours. PAP immune complexes were formed as described above. PAP (100 μl) were pre-incubated with 100 μl of peptide for one hour. PAP/peptide mixtures were added to the FcγR coated plates and incubated for one hour. After washing, plates were incubated with ABTS substrate for 15 minutes and read at 405 nm.

FcγIIa = test: Reverse ELISA: inhibition of PAP immune complex binding to FcγIIa coated plates; conditions: PAP pre-incubated 1 h with peptide, 1 h on FcγIIa coated plates; lower = more inhibition; positive control 1.599
Text: as §1, §2, §3

FcγIII = test: Reverse ELISA: inhibition of PAP immune complex binding to FcγIII coated plates; conditions: PAP pre-incubated 1 h with peptide, 1 h on FcγIII coated plates; lower = more inhibition; positive control 1.588
Text: as §1, §2, §3

human wt α-synuclein = test: Reverse ELISA: inhibition of immune complexed IgG (PAP) binding to wt α-synuclein; conditions: for Wt α-synuclein (read at 405 nm): PAP pre-incubated 1 h with peptide
Description: PAP complexes were formed mixing 2 μl of rabbit anti-peroxidase (Sigma) with 50 μl of peroxidase (Sigma) in 1 ml distilled water. PAP (100 μl) were pre-incubated with 100 μl of peptide for one hour. Control PAP (200 μl) also was incubated for one hour. 100 μl of either PAP or PAP/peptide was added to Falcon microtiter plates that had been coated for 24 or 48 hours with 167 μg/ml human wt α-synuclein (Sigma-Aldrich), and the plates were incubated for 60 minutes. After washing, plates were incubated with ATBS for 30 minutes and then read at 405 nm.

highly purified FcγIIb = test: reverse ELISA: PAP without competitor on FcγIIb-coated plate
highly purified FcγIIa = test: reverse ELISA: PAP without competitor on FcγIIa-coated plate
highly purified FcγIIa, sequence (P12318 34-317): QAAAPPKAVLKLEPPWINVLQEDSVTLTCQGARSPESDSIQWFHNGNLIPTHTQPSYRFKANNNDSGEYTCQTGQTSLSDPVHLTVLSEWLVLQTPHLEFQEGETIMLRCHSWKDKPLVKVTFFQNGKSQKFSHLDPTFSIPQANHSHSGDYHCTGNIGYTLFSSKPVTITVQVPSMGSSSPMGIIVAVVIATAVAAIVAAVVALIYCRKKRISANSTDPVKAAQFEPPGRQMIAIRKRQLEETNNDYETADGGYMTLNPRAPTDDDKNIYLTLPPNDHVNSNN

highly purified FcγIII = test: reverse ELISA: PAP without competitor on FcγIII-coated plate
[1] = target: human wt α-synuclein (Sigma-Aldrich) (human) (UniProt P37840); test: reverse ELISA: PAP without competitor on α-synuclein-coated plate (taken as the 24 h coating)
IgG Fc = IgG Fc (Homo sapiens, UniProt P01857); test: Alanine substitution effect on binding of SEQ ID NO:16 to IgG Fc; conditions: alanine substitution of SEQ ID NO:16 Val-13 or Trp-14
Text: The indole ring of Trp-14 in SEQ ID NO:16 has a hydrophobic interaction with IgG Fc His-435. SEQ ID NO:16 also has hydrophobic packing with IgG Fc Met-252, Ile-253, Ser-254, His-435, and Tyr-436. Alanine substitution of IgG Fc Asn-434, His-435, or Tyr-436 disrupts binding (ΔΔG≧1.5 kcal/mol). Similarly, alanine substitution of SEQ ID NO:16 Val-13 or Trp-14 results in disruption of binding (ΔΔG≧2.0 kcal/mol).

FcR = test: FcγR reverse ELISA, overall statement on FcR binding to PAP; conditions: among the peptides of Table 2
Description: as §2, §3

[2] = target: preformed immune complex of peroxidase-rabbit anti-peroxidase IgG (PAP complex) (rabbit; horseradish) (UniProt P00433); test: reverse ELISA competition: PAP pre-incubated with peptide, then on FcγIIb-coated plate (competitor: immobilized FcγIIb)
preformed immune complex of peroxidase-rabbit anti-peroxidase IgG (PAP complex) (rabbit; horseradish), sequence (P00433 31-338, one chain of several): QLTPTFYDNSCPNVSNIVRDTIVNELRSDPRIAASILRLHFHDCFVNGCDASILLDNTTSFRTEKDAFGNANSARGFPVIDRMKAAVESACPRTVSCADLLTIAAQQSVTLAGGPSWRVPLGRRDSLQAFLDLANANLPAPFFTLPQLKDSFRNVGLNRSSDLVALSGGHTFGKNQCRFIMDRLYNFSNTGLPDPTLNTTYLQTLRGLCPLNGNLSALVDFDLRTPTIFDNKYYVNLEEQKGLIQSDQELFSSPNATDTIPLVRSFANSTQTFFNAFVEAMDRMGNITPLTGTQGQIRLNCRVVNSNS

[3] = target: preformed immune complex of peroxidase-rabbit anti-peroxidase IgG (PAP complex) (rabbit; horseradish) (UniProt P00433); test: reverse ELISA competition: PAP pre-incubated with peptide, then on FcγIIa-coated plate (competitor: immobilized FcγIIa)
[4] = target: preformed immune complex of peroxidase-rabbit anti-peroxidase IgG (PAP complex) (rabbit; horseradish) (UniProt P00433); test: reverse ELISA competition: PAP pre-incubated with peptide, then on C1q-coated plate; signal is PAP bound to C1q (competitor: immobilized human C1q)
[5] = target: preformed immune complex of peroxidase-rabbit anti-peroxidase IgG (PAP complex) (rabbit; horseradish) (UniProt P00433); test: reverse ELISA competition: PAP pre-incubated with peptide, then on FcγIII-coated plate (competitor: immobilized FcγIII)
[6] = target: preformed immune complex of peroxidase-rabbit anti-peroxidase IgG (PAP complex) (rabbit; horseradish) (UniProt P00433); test: reverse ELISA competition: PAP pre-incubated with peptide, then on plate coated 24 h with human wt α-synuclein (competitor: immobilized α-synuclein)
[7] = target: preformed immune complex of peroxidase-rabbit anti-peroxidase IgG (PAP complex) (rabbit; horseradish) (UniProt P00433); test: reverse ELISA competition: PAP pre-incubated with peptide, then on plate coated 48 h with human wt α-synuclein (competitor: immobilized α-synuclein)
[8] = plates coated 24 h with 167 μg/ml α-synuclein, positive control 1.433
[9] = plates coated 48 h with 167 μg/ml α-synuclein, positive control […]

Molecule	OD 405 nm (human C1q)	FcγIIb (read at 405 nm) (FcγIIb)	FcγIIa (read at 405 nm) (FcγIIa)	FcγIII (read at 405 nm) (FcγIII)	OD 405 nm [2] [OD 405 nm]	OD 405 nm [3] [OD 405 nm]	OD 405 nm [4] [OD 405 nm]	OD 405 nm [5] [OD 405 nm]	also measured
APPCARHLGELVWCT	0.567	0.768	0.956	0.709					inhibition of C1q binding, ranking in words (human C1q): next best result
DCAWHLGELVWCT	1.100	0.532	0.561	0.741					Wt α-synuclein (read at 405 nm) (human wt α-synuclein; [8]): 0.111; Wt α-synuclein (read at 405 nm) (human wt α-synuclein; [9]): 0.152
APPCAFHLGELVWCT (not fully specified; cysteine pairing not given here)	0.983	0.380	0.605	0.880					
preformed immune complex of peroxidase-rabbit anti-peroxidase IgG (PAP complex) (from UniProt P00433 31-338) (antibody)									OD 405 nm (highly purified FcγIIb): 1.39 OD 405 nm; OD 405 nm (highly purified FcγIIa): 1.6 OD 405 nm; OD 405 nm (highly purified FcγIII): 1.59 OD 405 nm; OD 405 nm [1]: 1.43 OD 405 nm
APPCAWHLGELVWCT	1.148	0.562	0.658	0.530					
APPDCAWHLGELVWCT	0.389	0.496	0.509	0.670					ΔΔG, disruption of binding (IgG Fc): ≥ 2.0 kcal/mol; inhibition of C1q binding, ranking in words (human C1q): greatest inhibition of C1q binding, almost equaling C1q itself; inhibition of α-synuclein binding to PAP, ranking in words (human wt α-synuclein; among the peptides of Table 3): greatest inhibition of α-synuclein binding to PAP; Wt α-synuclein (read at 405 nm) (human wt α-synuclein; [8]): 0.088; Wt α-synuclein (read at 405 nm) (human wt α-synuclein; [9]): 0.136; inhibition of FcR binding to PAP, ranking in words (FcR): greatest inhibition of FcR binding to PAP
DCAFHLGELVWCT	0.859	0.510	0.660	0.810					
B1					0.51	0.66	0.859	0.81	
B2					0.768	0.956	0.567	0.709	
B3					0.562	0.658	1.15	0.53	
B4					0.38	0.605	0.983	0.88	
B5					0.496	0.509	0.389	0.67	OD 405 nm [6]: 0.088 OD 405 nm; OD 405 nm [7]: 0.136 OD 405 nm
